The text below walks through data of article PMC6636782 (PLoS Neglected Tropical Diseases, 2019).

As a reminder, the EC50 is the concentration that produces a half-maximal response.

Assay [1] relates to CD4^+ T cell activation, HLA-DRB1*04:04 transgenic mice splenocytes. The class given is cell-based. The following applies: acute response to rVACV-CHIKV, listed as CHIKV E2_133-145.
The target in a further assay is HLA-C*07:02 (Homo sapiens, UniProt P10321).
In the next assay the target is T1, HLA-B*07:02 (Homo sapiens, UniProt P01889).
T1 construct: expressed in transfected cells; host or cells: RMA-S (TAP-deficient) cells transfected with HLA-B*07:02
In words: cell-based.

“Also recorded” adds a separate entry of the source. Residues, ends and D or L forms follow the SMILES beside them.

As to PPVIGREKFHSRP, in assay [1], the “recognition of peptide-pulsed cells by spleen cells” value is “specifically recognized; also recorded: presented and recognized as an epitope bound to DRB1*04:04”. On to YEHVTVIPNTVGVPYK, for which the “detection in HLA-bound peptide pool” value at HLA-C*07:02 is recorded as “most likely a HLA-C*07:02 ligand”. Consider `CC[C@H](C)[C@H](NC(=O)[C@@H](NC(=O)[C@@H]1CCCN1C(=O)[C@H](CCCNC(=N)N)NC(=O)[C@@H]1CCCN1C(=O)[C@@H](NC(=O)[C@H](Cc1c[nH]c2ccccc12)NC(=O)[C@@H]1CCCN1C(=O)[C@@H](N)CCCNC(=N)N)[C@@H](C)O)[C@@H](C)O)C(=O)O` (H-RPWTPRPTI-OH), for which the midpoint of the response on HLA-B*07:02, the EC50, lay at 6 ± 6 µM.
